Patent US20230123334A1, “AMINO LIPID COMPOUND, PREPARATION METHOD THEREFOR, AND APPLICATION THEREOF” (SHENZHEN SHENXIN BIOTECHNOLOGY CO., LTD., priority 2020, published 2023)

Tested on: HEK293 cells
Assay: Preliminary screening as DNA vectors, GFP transfection of HEK293 cells
Assay type: cell-based
Settings: amino lipid/DOPE liposome with 75 ng plasmid DNA (psin-EGFP-IRES-Puro); number of GFP-expressing cells divided by total nuclei (Hoechst)
In short: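 HEK293 cells in DMEM/10% FBS transfected with 75 ng EGFP plasmid per well complexed with amino lipid/DOPE liposomes in pH 5.6 sodium acetate. Hoechst nuclear stain added 20-24 h post-transfection, then cells cultured another 20-24 h. Confocal imaging gives GFP-positive cells as % of total nuclei.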

First: CCCCCCCCCCCCCCCCSc1nc(NCCCCCCCCCCC)nc(NCCN2CCCC2)n1 [S16N11 D3]
Second: CCCCCCCCCCCCCCCCSc1nc(NCCCCCCCCCCC)nc(NCCN2CCCCC2)n1 [S16N11 D4]
The “Absolute DNA transfection efficiency in HEK293 cells” value (shortened to “Absolute DNA transfection efficiency”) of the first is higher: 16.6% for the first, 5.8% for the second.

Compared with `CCCCCCCCCCCCCCCCSc1nc(NCCCCCCCCCCC)nc(NCCN2CCN(C)CC2)n1` [S16N11 D5], `CCCCCCCCCCCCCCCCSc1nc(NCCCCCCCCCCCC)nc(NCCN2CCN(C)CC2)n1` [S16N12 D5] is lower in “Absolute DNA transfection efficiency” value: 9.5% for the first, 1.9% for the second.

Compared with `CCCCCCCCCCCCCCCCSc1nc(NCCCCCCCCCCC)nc(NCCCN(C)C)n1` [S16N11 D6], `CCCCCCCCCCCCCCCCSc1nc(NCCCCCCCCCCCC)nc(NCCCN(C)C)n1` [S16N12 D6] is lower in “Absolute DNA transfection efficiency” value: 10.3% for the first, 2.7% for the second.

Compared with `CCCCCCCCCCCCCCCCSc1nc(NCCCCCCCCCCC)nc(NCCN(CC)CC)n1` [S16N11 D7], `CCCCCCCCCCCCCCCCSc1nc(NCCCCCCCCCCCC)nc(NCCN(CC)CC)n1` [S16N12 D7] is lower in “Absolute DNA transfection efficiency” value: 15.5% for the first, 0.7% for the second.

First: CCCCCCCCCCCCCCCCSc1nc(NCCCCCCCCCCC)nc(NCCCN2CCOCC2)n1 [S16N11 D8]
Second: CCCCCCCCCCCCCCCCSc1nc(NCCCCCCCCCCCC)nc(NCCCN2CCOCC2)n1 [S16N12 D8]
The “Absolute DNA transfection efficiency” value of the first is higher: 5.0% for the first, 0.0% for the second.

Going from `CCCCCCCCCCCCCCCCSc1nc(NCCCCCCCCCCC)nc(NCCCN2CCN(C)CC2)n1` [S16N11 D9] to `CCCCCCCCCCCCCCCCSc1nc(NCCCCCCCCCCCC)nc(NCCCN2CCN(C)CC2)n1` [S16N12 D9], the “Absolute DNA transfection efficiency” value rises from 9.6% to 11.4%.

Compared with `CCCCCCCCCCCCCCCCSc1nc(NCCCCCCCCCCC)nc(NCC2CCN(C)CC2)n1` [S16N11 D10], `CCCCCCCCCCCCCCCCSc1nc(NCCCCCCCCCCCC)nc(NCC2CCN(C)CC2)n1` [S16N12 D10] is higher in “Absolute DNA transfection efficiency” value: 0.0% for the first, 2.1% for the second.

Compared with `CCCCCCCCCCCCCCCCSc1nc(NCCCCCCCCCCCC)nc(NCCN(C)C)n1` [S16N12 D1], `CCCCCCCCCCCCCCCCSc1nc(NCCCCCCCCCCCCC)nc(NCCN(C)C)n1` [S16N13 D1] is lower in “Absolute DNA transfection efficiency” value: 4.2% for the first, 1.2% for the second.

`CCCCCCCCCCCCCCCCSc1nc(NCCCCCCCCCCCC)nc(NCCN2CCOCC2)n1` [S16N12 D2] and `CCCCCCCCCCCCCCCCSc1nc(NCCCCCCCCCCCCC)nc(NCCN2CCOCC2)n1` [S16N13 D2] are the same in “Absolute DNA transfection efficiency” value: 0.0% for the first, 0.0% for the second.

Going from `CCCCCCCCCCCCCCCCSc1nc(NCCCCCCCCCCCC)nc(NCCN2CCCC2)n1` [S16N12 D3] to `CCCCCCCCCCCCCCCCSc1nc(NCCCCCCCCCCCC)nc(NCCN2CCCCC2)n1` [S16N12 D4], the “Absolute DNA transfection efficiency” value falls from 3.9% to 0.0%.

First: CCCCCCCCCCCCCCCCSc1nc(NCCCCCCCCCCCCC)nc(NCCN2CCCC2)n1 [S16N13 D3]
Second: CCCCCCCCCCCCCCCCSc1nc(NCCCCCCCCCCCCC)nc(NCCN2CCCCC2)n1 [S16N13 D4]
The “Absolute DNA transfection efficiency” value of the first is higher: 1.5% for the first, 0.0% for the second.

First: CCCCCCCCCCCCCCCCSc1nc(NCCCCCCCCCCCCC)nc(NCCN2CCN(C)CC2)n1 [S16N13 D5]
Second: CCCCCCCCCCCCCCCCSc1nc(NCCCCCCCCCCCCCCC)nc(NCCN2CCN(C)CC2)n1 [S16N15 D5]
The “Absolute DNA transfection efficiency” value of the first is higher: 0.8% for the first, 0.3% for the second.

Going from `CCCCCCCCCCCCCCCCSc1nc(NCCCCCCCCCCCCC)nc(NCCCN(C)C)n1` [S16N13 D6] to `CCCCCCCCCCCCCCCCSc1nc(NCCCCCCCCCCCCCCC)nc(NCCCN(C)C)n1` [S16N15 D6], the “Absolute DNA transfection efficiency” value falls from 1.2% to 0.0%.

Going from `CCCCCCCCCCCCCCCCSc1nc(NCCCCCCCCCCCCC)nc(NCCN(CC)CC)n1` [S16N13 D7] to `CCCCCCCCCCCCCCCCSc1nc(NCCCCCCCCCCCCCCC)nc(NCCN(CC)CC)n1` [S16N15 D7], the “Absolute DNA transfection efficiency” value falls from 3.7% to 0.6%.

First: CCCCCCCCCCCCCCCCSc1nc(NCCCCCCCCCCCCC)nc(NCCCN2CCOCC2)n1 [S16N13 D8]
Second: CCCCCCCCCCCCCCCCSc1nc(NCCCCCCCCCCCCCCC)nc(NCCCN2CCOCC2)n1 [S16N15 D8]
The “Absolute DNA transfection efficiency” value of the first is higher: 0.2% for the first, 0.0% for the second.

Going from `CCCCCCCCCCCCCCCCSc1nc(NCCCCCCCCCCCCC)nc(NCCCN2CCN(C)CC2)n1` [S16N13 D9] to `CCCCCCCCCCCCCCCCSc1nc(NCCCCCCCCCCCCCCC)nc(NCCCN2CCN(C)CC2)n1` [S16N15 D9], the “Absolute DNA transfection efficiency” value falls from 5.7% to 0.3%.

Going from `CCCCCCCCCCCCCCCCSc1nc(NCCCCCCCCCCCCC)nc(NCC2CCN(C)CC2)n1` [S16N13 D10] to `CCCCCCCCCCCCCCCCSc1nc(NCCCCCCCCCCCCCCC)nc(NCC2CCN(C)CC2)n1` [S16N15 D10], the “Absolute DNA transfection efficiency” value falls from 2.0% to 0.2%.

First: CCCCCCCCCCCCCCCCSc1nc(NCCCCCCCCCCCCCCC)nc(NCCN(C)C)n1 [S16N15 D1]
Second: CCCCCCCCCCCCCCCCNc1nc(NCCN(C)C)nc(SCCCCCCCCCCCCCCCC)n1 [S16N16 D1]
The “Absolute DNA transfection efficiency” value of the first is higher: 1.6% for the first, 0.7% for the second.

`CCCCCCCCCCCCCCCCSc1nc(NCCCCCCCCCCCCCCC)nc(NCCN2CCOCC2)n1` [S16N15 D2] and `CCCCCCCCCCCCCCCCNc1nc(NCCN2CCOCC2)nc(SCCCCCCCCCCCCCCCC)n1` [S16N16 D2] are the same in “Absolute DNA transfection efficiency” value: 0.0% for the first, 0.0% for the second.

Going from `CCCCCCCCCCCCCCCCSc1nc(NCCCCCCCCCCCCCCC)nc(NCCN2CCCC2)n1` [S16N15 D3] to `CCCCCCCCCCCCCCCCSc1nc(NCCCCCCCCCCCCCCC)nc(NCCN2CCCCC2)n1` [S16N15 D4], the “Absolute DNA transfection efficiency” value rises from 0.0% to 2.6%.

First: CCCCCCCCCCCCCCCCNc1nc(NCCN2CCCC2)nc(SCCCCCCCCCCCCCCCC)n1 [S16N16 D3]
Second: CCCCCCCCCCCCCCCCNc1nc(NCCN2CCCCC2)nc(SCCCCCCCCCCCCCCCC)n1 [S16N16 D4]
The “Absolute DNA transfection efficiency” value of the first is lower: 1.6% for the first, 3.4% for the second.

Going from `CCCCCCCCCCCCCCCCNc1nc(NCCN2CCN(C)CC2)nc(SCCCCCCCCCCCCCCCC)n1` [S16N16 D5] to `CCCCCCCCCCCCCCCCCCNc1nc(NCCN2CCN(C)CC2)nc(SCCCCCCCCCCCCCCCC)n1` [S16N18 D5], the “Absolute DNA transfection efficiency” value falls from 0.5% to 0.0%.

First: CCCCCCCCCCCCCCCCNc1nc(NCCCN(C)C)nc(SCCCCCCCCCCCCCCCC)n1 [S16N16 D6]
Second: CCCCCCCCCCCCCCCCCCNc1nc(NCCCN(C)C)nc(SCCCCCCCCCCCCCCCC)n1 [S16N18 D6]
The “Absolute DNA transfection efficiency” value of the first is higher: 0.1% for the first, 0.0% for the second.

Compared with `CCCCCCCCCCCCCCCCNc1nc(NCCN(CC)CC)nc(SCCCCCCCCCCCCCCCC)n1` [S16N16 D7], `CCCCCCCCCCCCCCCCCCNc1nc(NCCN(CC)CC)nc(SCCCCCCCCCCCCCCCC)n1` [S16N18 D7] is lower in “Absolute DNA transfection efficiency” value: 0.2% for the first, 0.0% for the second.

`CCCCCCCCCCCCCCCCNc1nc(NCCCN2CCOCC2)nc(SCCCCCCCCCCCCCCCC)n1` [S16N16 D8] and `CCCCCCCCCCCCCCCCCCNc1nc(NCCCN2CCOCC2)nc(SCCCCCCCCCCCCCCCC)n1` [S16N18 D8] are the same in “Absolute DNA transfection efficiency” value: 0.0% for the first, 0.0% for the second.

`CCCCCCCCCCCCCCCCNc1nc(NCCCN2CCN(C)CC2)nc(SCCCCCCCCCCCCCCCC)n1` [S16N16 D9] and `CCCCCCCCCCCCCCCCCCNc1nc(NCCCN2CCN(C)CC2)nc(SCCCCCCCCCCCCCCCC)n1` [S16N18 D9] are the same in “Absolute DNA transfection efficiency” value: 0.0% for the first, 0.0% for the second.

Compared with `CCCCCCCCCCCCCCCCNc1nc(NCC2CCN(C)CC2)nc(SCCCCCCCCCCCCCCCC)n1` [S16N16 D10], `CCCCCCCCCCCCCCCCCCNc1nc(NCC2CCN(C)CC2)nc(SCCCCCCCCCCCCCCCC)n1` [S16N18 D10] is higher in “Absolute DNA transfection efficiency” value: 0.2% for the first, 1.2% for the second.

Compared with `CCCCCCCCCCCCCCCCCCNc1nc(NCCN(C)C)nc(SCCCCCCCCCCCCCCCC)n1` [S16N18 D1], `CCCCCCCCCCCCCCCCCCNc1nc(NCCN2CCCC2)nc(SCCCCCCCCCCCCCCCC)n1` [S16N18 D3] is higher in “Absolute DNA transfection efficiency” value: 0.3% for the first, 0.6% for the second.

Compared with `CCCCCCCCCCCCCCCCCCNc1nc(NCCN2CCOCC2)nc(SCCCCCCCCCCCCCCCC)n1` [S16N18 D2], `CCCCCCCCCCCCCCCCCCNc1nc(NCCN2CCCCC2)nc(SCCCCCCCCCCCCCCCC)n1` [S16N18 D4] is higher in “Absolute DNA transfection efficiency” value: 0.0% for the first, 0.2% for the second.

`CCCCCCCCCCCCCCCCSc1nc(NCCN(C)C)nc(N(CCCCCCCCCCCC)CCCCCCCCCCCC)n1` [S16^2N12 D1] and `CCCCCCCCCCCCCCCCSc1nc(NCCCN(C)C)nc(N(CCCCCCCCCCCC)CCCCCCCCCCCC)n1` [S16^2N12 D6] are the same in “Absolute DNA transfection efficiency” value: 0.0% for the first, 0.0% for the second.

`CCCCCCCCCCCCCCCCSc1nc(NCCN2CCOCC2)nc(N(CCCCCCCCCCCC)CCCCCCCCCCCC)n1` [S16^2N12 D2] and `CCCCCCCCCCCCCCCCSc1nc(NCCN2CCCC2)nc(N(CCCCCCCCCCCC)CCCCCCCCCCCC)n1` [S16^2N12 D3] are the same in “Absolute DNA transfection efficiency” value: 0.0% for the first, 0.0% for the second.

Compared with `CCCCCCCCCCCCCCCCSc1nc(NCCN2CCCCC2)nc(N(CCCCCCCCCCCC)CCCCCCCCCCCC)n1` [S16^2N12 D4], `CCCCCCCCCCCCCCCCSc1nc(NCCN2CCN(C)CC2)nc(N(CCCCCCCCCCCC)CCCCCCCCCCCC)n1` [S16^2N12 D5] is lower in “Absolute DNA transfection efficiency” value: 0.1% for the first, 0.0% for the second.

For `CCCCCCCCCCCCCCCCSc1nc(NCCN(CC)CC)nc(N(CCCCCCCCCCCC)CCCCCCCCCCCC)n1` [S16^2N12 D7], the “Absolute DNA transfection efficiency” value was 0.1%.
